Measured values from ChEMBL document CHEMBL1201862, “PubChem BioAssay data set” (2004).
Calls of active or inactive are those of the source.

How the values were obtained:
[1] = molecular target: Voltage-gated inwardly rectifying potassium channel KCNH2 (Homo sapiens, UniProt Q12809); settings: Potency;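 further: confirmatory quantitative high-throughput screen measuring inhibition of hERG channel activity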
[2] = molecular target: 5-hydroxytryptamine receptor 2A (Mus musculus, UniProt P35363); format: functional, cell-based;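 further: CHO-K1 cells with tagged receptor and beta-arrestin; agonist potency measured as compound-induced activation of the receptor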
Chain of 5-hydroxytryptamine receptor 2A (P35363 whole entry): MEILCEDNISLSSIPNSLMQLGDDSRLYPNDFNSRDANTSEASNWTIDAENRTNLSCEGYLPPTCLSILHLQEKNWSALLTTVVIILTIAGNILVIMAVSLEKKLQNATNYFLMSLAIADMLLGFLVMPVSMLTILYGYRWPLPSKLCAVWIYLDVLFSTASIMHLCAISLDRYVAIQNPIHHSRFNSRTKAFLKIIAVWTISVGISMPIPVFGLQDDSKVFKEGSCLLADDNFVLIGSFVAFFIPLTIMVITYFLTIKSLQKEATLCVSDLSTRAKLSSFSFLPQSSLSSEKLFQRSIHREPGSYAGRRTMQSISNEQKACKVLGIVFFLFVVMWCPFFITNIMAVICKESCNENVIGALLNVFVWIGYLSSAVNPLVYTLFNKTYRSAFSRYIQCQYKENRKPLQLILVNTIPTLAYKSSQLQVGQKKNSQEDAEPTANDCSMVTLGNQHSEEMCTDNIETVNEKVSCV

[3] = molecular target: Mu-type opioid receptor (Homo sapiens, UniProt P35372); format: functional, cell-based;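 further: U2OS cells with beta-arrestin recruitment to OPRM1 by beta-gal complementation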
Chain of Mu-type opioid receptor (P35372 whole entry, the tested form may be a part): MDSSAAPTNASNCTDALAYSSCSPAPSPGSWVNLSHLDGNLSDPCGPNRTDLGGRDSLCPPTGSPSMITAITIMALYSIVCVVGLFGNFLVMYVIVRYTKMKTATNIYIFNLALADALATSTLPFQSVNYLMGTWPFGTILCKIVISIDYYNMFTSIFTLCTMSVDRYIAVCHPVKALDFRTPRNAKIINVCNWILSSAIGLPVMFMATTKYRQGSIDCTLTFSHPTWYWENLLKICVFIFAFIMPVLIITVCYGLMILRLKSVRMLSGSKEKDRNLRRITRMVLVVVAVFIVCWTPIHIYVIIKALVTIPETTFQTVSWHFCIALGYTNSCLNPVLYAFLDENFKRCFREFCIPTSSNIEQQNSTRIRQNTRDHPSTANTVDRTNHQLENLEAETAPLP

[4] = molecular target: T1, Hexokinase HKDC1 (Homo sapiens, UniProt Q2TB90); test: SAR analysis of small molecule inhibitors of hexokinase domain containing I (HKDC1). [Related pubchem assays (depositor defined):AID493160, AID493190]; format: functional
T1 sequence (Q2TB90 whole entry): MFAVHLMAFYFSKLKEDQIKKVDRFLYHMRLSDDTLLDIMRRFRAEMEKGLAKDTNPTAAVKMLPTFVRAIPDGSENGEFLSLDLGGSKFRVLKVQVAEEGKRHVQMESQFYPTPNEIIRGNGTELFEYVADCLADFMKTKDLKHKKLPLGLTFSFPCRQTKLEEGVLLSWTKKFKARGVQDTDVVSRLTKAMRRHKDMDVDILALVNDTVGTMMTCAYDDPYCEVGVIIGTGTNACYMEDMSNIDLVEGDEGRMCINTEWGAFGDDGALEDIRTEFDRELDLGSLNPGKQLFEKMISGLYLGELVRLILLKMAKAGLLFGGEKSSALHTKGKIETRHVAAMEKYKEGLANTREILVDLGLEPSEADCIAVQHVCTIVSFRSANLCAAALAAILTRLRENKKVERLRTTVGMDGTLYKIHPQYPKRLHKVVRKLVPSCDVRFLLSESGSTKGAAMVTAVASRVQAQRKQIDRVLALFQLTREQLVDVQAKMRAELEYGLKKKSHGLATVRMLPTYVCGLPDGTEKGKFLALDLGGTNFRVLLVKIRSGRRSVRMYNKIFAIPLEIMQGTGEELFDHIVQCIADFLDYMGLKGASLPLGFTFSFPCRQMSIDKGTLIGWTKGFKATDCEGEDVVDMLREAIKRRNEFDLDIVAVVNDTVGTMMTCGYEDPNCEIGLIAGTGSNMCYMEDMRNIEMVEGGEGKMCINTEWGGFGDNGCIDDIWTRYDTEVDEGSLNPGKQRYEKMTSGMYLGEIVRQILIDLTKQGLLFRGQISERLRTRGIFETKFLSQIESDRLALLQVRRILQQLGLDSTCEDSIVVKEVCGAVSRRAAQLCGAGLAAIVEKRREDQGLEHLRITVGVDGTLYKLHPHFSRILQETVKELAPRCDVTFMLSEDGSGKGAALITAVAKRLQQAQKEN

[5] = molecular target: T2, Hexokinase-1 (Homo sapiens, UniProt P19367); test: SAR analysis of small molecule inhibitors of hexokinase domain containing I (HKDC1) in the hexokinase 1 selectivity assay. [Related pubchem assays (depositor defined):AID493160, AID493190]; format: functional
T2 sequence (P19367 whole entry, the tested form may be a part): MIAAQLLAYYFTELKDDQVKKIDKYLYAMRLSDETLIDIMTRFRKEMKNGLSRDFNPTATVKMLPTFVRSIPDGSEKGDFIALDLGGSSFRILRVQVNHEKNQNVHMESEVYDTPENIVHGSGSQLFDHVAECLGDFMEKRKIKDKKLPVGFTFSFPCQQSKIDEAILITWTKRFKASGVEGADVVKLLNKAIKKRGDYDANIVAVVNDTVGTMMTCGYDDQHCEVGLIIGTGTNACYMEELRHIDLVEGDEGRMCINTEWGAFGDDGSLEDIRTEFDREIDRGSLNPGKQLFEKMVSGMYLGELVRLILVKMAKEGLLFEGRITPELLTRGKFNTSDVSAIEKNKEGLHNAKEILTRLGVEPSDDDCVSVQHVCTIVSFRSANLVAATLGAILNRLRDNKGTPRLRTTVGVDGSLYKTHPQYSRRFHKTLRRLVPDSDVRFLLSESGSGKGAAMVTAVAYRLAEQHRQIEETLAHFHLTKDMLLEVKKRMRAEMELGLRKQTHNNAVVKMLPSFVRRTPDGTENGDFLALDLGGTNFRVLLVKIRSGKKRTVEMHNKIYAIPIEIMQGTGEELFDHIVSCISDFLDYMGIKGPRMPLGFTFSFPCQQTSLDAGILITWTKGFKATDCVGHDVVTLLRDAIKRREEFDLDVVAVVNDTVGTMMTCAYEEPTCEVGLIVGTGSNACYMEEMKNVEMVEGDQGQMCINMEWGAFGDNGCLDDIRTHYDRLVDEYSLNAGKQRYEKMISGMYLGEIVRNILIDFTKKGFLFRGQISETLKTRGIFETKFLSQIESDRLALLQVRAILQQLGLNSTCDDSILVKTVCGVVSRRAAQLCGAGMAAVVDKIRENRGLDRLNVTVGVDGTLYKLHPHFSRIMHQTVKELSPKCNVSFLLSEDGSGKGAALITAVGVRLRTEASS

[6] = molecular target: T3, Phospholipase D2 (Homo sapiens, UniProt O14939); test: PLD2 purified enzyme concentration response. [Related pubchem assays (depositor defined):AID588854]; format: functional
T3 sequence (O14939 whole entry): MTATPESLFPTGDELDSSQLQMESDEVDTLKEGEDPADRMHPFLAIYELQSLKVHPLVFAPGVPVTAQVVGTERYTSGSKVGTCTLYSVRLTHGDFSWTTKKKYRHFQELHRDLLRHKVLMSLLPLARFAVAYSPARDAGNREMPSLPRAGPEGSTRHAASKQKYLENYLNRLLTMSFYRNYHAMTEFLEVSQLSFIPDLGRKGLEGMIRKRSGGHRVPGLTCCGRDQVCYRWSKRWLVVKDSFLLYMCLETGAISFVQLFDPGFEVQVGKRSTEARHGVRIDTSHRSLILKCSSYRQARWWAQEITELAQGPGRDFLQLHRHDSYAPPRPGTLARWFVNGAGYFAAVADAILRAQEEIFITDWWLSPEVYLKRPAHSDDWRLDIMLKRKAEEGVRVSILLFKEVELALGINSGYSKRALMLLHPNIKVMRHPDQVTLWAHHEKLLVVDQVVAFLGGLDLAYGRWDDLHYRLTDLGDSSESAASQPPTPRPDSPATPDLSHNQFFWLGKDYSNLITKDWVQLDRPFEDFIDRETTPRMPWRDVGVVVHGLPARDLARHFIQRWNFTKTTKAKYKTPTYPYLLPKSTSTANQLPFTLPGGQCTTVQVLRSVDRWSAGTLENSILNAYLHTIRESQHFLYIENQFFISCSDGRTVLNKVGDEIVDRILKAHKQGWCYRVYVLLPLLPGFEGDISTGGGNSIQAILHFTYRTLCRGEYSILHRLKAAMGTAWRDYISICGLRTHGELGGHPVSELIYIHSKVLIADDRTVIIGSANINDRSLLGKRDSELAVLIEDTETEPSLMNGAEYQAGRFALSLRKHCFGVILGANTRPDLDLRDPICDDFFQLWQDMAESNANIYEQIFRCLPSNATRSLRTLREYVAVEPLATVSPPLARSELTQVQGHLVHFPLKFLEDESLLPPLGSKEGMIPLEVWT

[7] = molecular target: T4, Phospholipase D1 (Homo sapiens, UniProt Q13393); test: PLD1 purified enzyme concentration response. [Related pubchem assays (depositor defined):AID588854]; format: functional
T4 sequence (Q13393 whole entry): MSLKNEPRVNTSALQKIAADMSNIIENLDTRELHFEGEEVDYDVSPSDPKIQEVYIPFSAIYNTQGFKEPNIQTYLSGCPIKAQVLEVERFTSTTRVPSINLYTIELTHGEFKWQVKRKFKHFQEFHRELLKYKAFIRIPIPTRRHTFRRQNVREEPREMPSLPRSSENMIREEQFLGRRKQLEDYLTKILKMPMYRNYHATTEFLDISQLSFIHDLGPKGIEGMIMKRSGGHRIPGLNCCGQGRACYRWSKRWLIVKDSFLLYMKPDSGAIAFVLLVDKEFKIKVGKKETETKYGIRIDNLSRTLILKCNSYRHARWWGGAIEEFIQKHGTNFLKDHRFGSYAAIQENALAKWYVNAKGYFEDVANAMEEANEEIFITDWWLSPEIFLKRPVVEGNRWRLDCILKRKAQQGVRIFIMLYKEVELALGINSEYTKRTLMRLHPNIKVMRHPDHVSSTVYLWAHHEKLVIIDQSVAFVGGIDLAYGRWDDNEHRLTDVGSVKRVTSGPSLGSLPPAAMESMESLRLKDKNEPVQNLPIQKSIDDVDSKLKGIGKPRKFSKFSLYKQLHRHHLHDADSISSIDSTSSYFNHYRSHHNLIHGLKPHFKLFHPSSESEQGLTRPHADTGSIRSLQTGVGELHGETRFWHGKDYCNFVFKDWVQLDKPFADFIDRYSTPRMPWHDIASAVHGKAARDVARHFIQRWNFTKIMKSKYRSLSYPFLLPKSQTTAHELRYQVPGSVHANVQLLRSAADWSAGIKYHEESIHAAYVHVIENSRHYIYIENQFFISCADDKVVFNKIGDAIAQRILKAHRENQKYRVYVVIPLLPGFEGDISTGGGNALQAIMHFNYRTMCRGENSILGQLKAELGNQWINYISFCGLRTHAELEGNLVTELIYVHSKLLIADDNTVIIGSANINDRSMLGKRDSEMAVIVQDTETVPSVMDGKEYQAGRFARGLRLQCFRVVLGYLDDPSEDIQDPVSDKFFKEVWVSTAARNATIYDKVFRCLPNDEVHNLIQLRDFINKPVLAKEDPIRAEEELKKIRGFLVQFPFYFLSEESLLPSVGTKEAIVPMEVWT

[8] = molecular target: T3, Phospholipase D2; test: PLD2 inhibitor potency in cells, dose response (AID 602147); format: functional;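 further: cellular assay in HEK293 cells overexpressing GFP-tagged PLD2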
[9] = molecular target: T4, Phospholipase D1; test: PLD1 inhibitor potency in cells, dose response (AID 602151); format: functional;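 further: cellular PLD1 assay in Calu-1 cells stimulated with PMA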
[10] = molecular target: T2, Hexokinase-1; test: HK1 enzyme inhibition by HKDC1 hits, SAR follow-up, selectivity assay for HKDC1 inhibitor project, biochemical, set 2, resazurin fluorescence coupled readout (AID 588356); format: functional
[11] = molecular target: T1, Hexokinase HKDC1; test: HKDC1 hexokinase inhibitors, SAR follow-up, biochemical, set 2 (AID 588355); format: functional

Chain of Voltage-gated inwardly rectifying potassium channel KCNH2 (Q12809 whole entry): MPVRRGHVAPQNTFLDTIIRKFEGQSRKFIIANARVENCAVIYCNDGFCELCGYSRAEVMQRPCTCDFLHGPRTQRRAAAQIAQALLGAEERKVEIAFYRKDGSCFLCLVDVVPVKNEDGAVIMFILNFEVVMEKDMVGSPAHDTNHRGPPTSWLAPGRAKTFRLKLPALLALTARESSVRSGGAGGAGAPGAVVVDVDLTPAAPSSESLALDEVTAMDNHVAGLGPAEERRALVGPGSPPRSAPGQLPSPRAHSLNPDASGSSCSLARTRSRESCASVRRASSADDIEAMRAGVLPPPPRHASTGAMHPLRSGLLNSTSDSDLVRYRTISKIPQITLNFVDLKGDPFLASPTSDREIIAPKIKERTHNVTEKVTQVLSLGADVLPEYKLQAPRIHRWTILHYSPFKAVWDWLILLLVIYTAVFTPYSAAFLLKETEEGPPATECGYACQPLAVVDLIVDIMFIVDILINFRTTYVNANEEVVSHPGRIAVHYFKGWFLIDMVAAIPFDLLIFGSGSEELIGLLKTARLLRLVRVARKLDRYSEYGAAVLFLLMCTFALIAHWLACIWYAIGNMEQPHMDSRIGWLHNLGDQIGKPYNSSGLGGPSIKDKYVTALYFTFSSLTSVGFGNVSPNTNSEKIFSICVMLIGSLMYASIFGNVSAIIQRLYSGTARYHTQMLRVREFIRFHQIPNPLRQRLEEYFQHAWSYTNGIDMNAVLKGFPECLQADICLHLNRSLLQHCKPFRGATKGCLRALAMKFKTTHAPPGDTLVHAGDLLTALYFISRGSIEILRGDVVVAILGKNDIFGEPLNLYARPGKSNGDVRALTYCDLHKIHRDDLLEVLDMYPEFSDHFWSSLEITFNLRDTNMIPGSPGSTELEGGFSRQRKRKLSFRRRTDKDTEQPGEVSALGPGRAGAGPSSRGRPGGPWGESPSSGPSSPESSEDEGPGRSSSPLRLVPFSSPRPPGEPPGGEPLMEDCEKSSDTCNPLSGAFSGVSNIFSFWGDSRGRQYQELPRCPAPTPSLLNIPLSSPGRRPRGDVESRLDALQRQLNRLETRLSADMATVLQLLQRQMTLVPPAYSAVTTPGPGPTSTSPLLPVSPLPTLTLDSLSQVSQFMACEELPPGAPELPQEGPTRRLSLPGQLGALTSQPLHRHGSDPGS

With C=CCN1CCc2cc(O)c(O)cc2C(c2ccccc2)C1 (stereo unspecified) the AC50 [1] was 15.8 µM (inconclusive), the EC50 [2] was 2.32 µM (active) and the EC50 [3] was 92.5 µM (inactive).

With O=C(Nc1cccc(C(F)(F)F)c1)c1cccc(NC(=O)c2cnccn2)c1 the IC50 [4] was > 80 µM (inactive) and the IC50 [5] was > 80 µM (inactive).

In the case of C[C@H](CN1CCC(n2c(=O)[nH]c3cc(Cl)ccc32)CC1)NC(=O)c1cc2ccccc2[nH]1, the IC50 [6] is reported as 0.12 µM (active), the IC50 [7] is reported as 0.009 µM (active) and the IC50 [8] is reported as 0.26 µM (active). The IC50 [9] was 0.002 µM (active).

With CC(=O)NC1C(=O)N(Cc2ccccc2)c2ccc(Cl)cc21 (stereo unspecified) the IC50 [10] was > 80 µM (inactive) and the IC50 [11] was > 80 µM (inactive).
